# Patent US20050171206A1, “Therapeutical use” (priority 2004, published 2005)
# “And” between values parts separate entries of the source, which are not always exact repeats. Equal values may be shown once.
# What was measured:
# [1] = tested on: SMN2 genes; conditions: in vitro, cell cultures; cited from earlier work
# [2] = tested on: SMA patients; conditions: published clinical trials; cited from earlier work
# [3] = tested on: SMN full length (SMN-fl) transcripts (SMN2 gene expression) in leukocytes; experiment: SMN full length transcripts in leukocytes by real-time RT-PCR during one week of oral triButyrate (Example 1); type: in vivo, human
# Protocol: (§1) Six SMA patients (P1-P6) and three parents (M2, M3, F6) were enrolled for a pilot trial. Four patients had SMA type II (P1-P4). P1 is a child who had lost the ability to sit unaided. P3 is […] and P4 and P5 are both […]. Two patients (P5 and P6) had SMA type III. The trial was approved by the Ethical Committee of the Catholic University. A written informed consent was obtained from all patients/parents. triButyrate®, the sodium salt of phenylbutyrate was administered at 500 mg/kg/d (maximum dose 19 g/d), divided in 6 doses(every 4 hours) for 7 days. Blood samples were taken from patients and parents on day 0 (T0, baseline) and on days 1-4 (T1-T4) and 7 (T7) of drug administration, and from 5 healthy untreated controls on 5 consecutive days (T0-T4). Total RNA was extracted by Trizol from leukocytes immediately after hypotonic lysis of samples.
# SMN full length (SMN-fl) transcripts were measured by realtime RT-PCR using ABI-PRISM 7700 Sequence Detector System (Applied Biosystems) as described elsewhere. (Andreassi C, Angelozzi C, Tiziano F D, Vitali T, De Vincenzi E, Boninsegna A, Villanova M, Bertini E, Pini A, Neri G, Brahe C. Eur. J. Hum. Genet. 2004; 12:59-65) Transcripts were amplified at least twice in triplicate or quadruplicate. SMN transcript levels were calculated by comparing SMN versus glyceraldehyde-3-phosphate dehydrogenase transcripts, whose expression is not affected by triButyrate®. (Andreassi C, Angelozzi C, Tiziano F D, Vitali T, De Vincenzi E, Boninsegna A, Villanova M, Bertini E, Pini A, Neri G, Brahe C. Eur. J. Hum. Genet. 2004; 12:59-65) The relative amounts of SMN-fl transcripts in samples obtained from treated patients/parents and untreated controls were normalized versus those of T0.
# (§2) F of Fisher, ANOVA and T of Student for independent variables tests were performed to assess statistical significance by using Winstat 4.01 and SPSS 10.0.1 for Windows software. P values <0.05 were accepted as significant.
# [4] = i.v. administration, non-human primates; cited from earlier work
# [5] = 200 g per person and day; cited from earlier work
# [6] = tested on: children with SMA II; experiment: Side effects (Example 2); type: in vivo, human
# Protocol: The sodium salt of phenylbutyrate (triButyrate®) was administered orally in powder or tablets at 500 mg/kg/d (maximum dose 19 g/d), divided in 5 doses (every 4 hours except for an 8 hours night interval). An intermittent schedule (7 days on and 7 days off) was arbitrarily chosen, similarly to a previously reported schedule for treatment of sickle cell disease.
# [7] = tested on: children with SMA II (motor function); experiment: Hammersmith functional motor scale, open trial in SMA II children (Example 2); type: in vivo, human; conditions: for Hammersmith functional scale score, mean: 10 children, baseline mean 13
# From the text: Thirteen patients with SMA II, all with homozygous absence of SMN1, followed at the Bambino Gesu Hospital or at the UILDM centre in Rome were asked to participate in the present prospective open trial. In order to have a relatively homogeneous cohort of patients who could all be tested on the same scale only children with SMA II between 30 months and 12 years were included. Children younger than 30 months were excluded as the Hammersmith scale can only be reliably and consistently performed and scored after this age. (Main M, Kairon H, Mercuri E, Muntoni F. Eur J Paediatr Neurol. 2003;7:155-59.) Children older than 12 were excluded as after this age several complications, such as severe scoliosis and contractures are more frequent. Children who had been part of other pharmacological trials (e.g. salbutamol, creatine) in the year before the present trial started or who had had corrective surgery for scoliosis were also excluded.
# (§3) The sodium salt of phenylbutyrate (triButyrate®) was administered orally in powder or tablets at 500 mg/kg/d (maximum dose 19 g/d), divided in 5 doses (every 4 hours except for an 8 hours night interval). An intermittent schedule (7 days on and 7 days off) was arbitrarily chosen, similarly to a previously reported schedule for treatment of sickle cell disease. (Atweh G F, Sutton M, Nassif I, Boosalis V, Dover G J, Wallen-stein S, Wright E, McMahon L, Stamatoyannopoulos G, Faller D V, Perrine S P Blood.1999;93:1790-97.) When this dosage was tolerated, patients were advised to continue for 9 weeks (5 weeks on and 4 weeks off).
# (§4) The assessment consisted of a detailed clinical physiotherapy evaluation including the Hammersmith functional motor scale and, in children older than 5 years, assessment of muscle strength and of forced vital capacity.
# The scale consists of 20 items, each scored on a 3 point scoring system, (2 for unaided, 1 for assistance and 0 for inability). A total score can be achieved by summing the scores for all the individual items. The score can range from 0, if all the activities are failed, to 40, if all the activities are achieved.
# All items have to be tested without thoracic braces or leg orthoses. The scale can be completed in a maximum of 15 minutes. (Main M, Kairon H, Mercuri E, Muntoni F. Eur J Paediatr Neurol. 2003;7:155-59.)
# The scale was performed by 2 examiners (MP, SM) and each child was always assessed by the same examiner throughout the 3 assessments. Both observers had training sessions with a senior physiotherapist (MM) and the intra and inter-rater reliability was formally assessed in 5 children before starting the trial. In agreement with the previously reported data on intra and inter-observer reliability, these were >95%. (Main M, Kairon H, Mercuri E, Muntoni F. Eur J Paediatr Neurol. 2003;7:155-59.)
# The primary measure of efficacy in this trial was the change from baseline to 3 and 9 weeks in motor function as determined by the Hammersmith motor scale. Secondary measures included the change from baseline to 3 and 9 weeks in myometry scores and in FVC in the children older than 5 years. The primary outcome was analysed using repeated measures ANOVA. Statistical significance was determined at p<0.05. An estimate of SD of change in each of the measures considered is presented with 95% confidence intervals. The number of children older than 5 years who could be reliably assessed for myometry and FVC was too small to allow any meaningful statistical analysis for these measures.
# [8] = tested on: SMA patients and parents; experiment: Clinical observations and tolerability, pilot trial (Example 1); type: in vivo, human
# Protocol: as §1
# These subjective improvements prompted us to perform myometry in the other four patients on day 0 and 7 (table 1.2).
# [9] = tested on: children with SMA II older than 5 years (muscle strength); experiment: Myometry, hand held electronic myometer (Example 2); type: in vivo, human; parameters: myometry: unit not given here; conditions: for myometry: individual children
# Protocol: as §3, §4
# (§5) Measurements lasted 3 to 5 seconds. The scores were grouped in a leg mega score and arm megascore by adding the best readings for each individual muscle within the subgroup and subdividing this score by the number of muscles examined. Intra-observer variation performed before the implementation of the study was less than 5%. Both myometry and measurement of joint contractures were performed by the same physiotherapist.
# [10] = cited from earlier work
# [11] = tested on: children with SMA II; experiment: Joint contractures (Example 2); type: in vivo, human; conditions: between baseline and 9 weeks
# Protocol: as §5
# [12] = tested on: children with SMA II older than 5 years; experiment: Forced vital capacity by spirometer (Example 2); type: in vivo, human; parameters: FVC: unit not given here; conditions: for FVC: individual children
# Protocol: as §3, §4
# This was measured using a standard spirometer (Spyroanalyser ST-95, Fukuda Sangyo Co, LTD, Philippines) and using the best of three attempts.
# [13] = tested on: SMA patients (muscle strength); experiment: Myometry with hand-held dynamometer, day 0 and day 7 (Example 1); type: in vivo, human
# Protocol: as §1
# Muscle strength was assessed using a hand-held dynamometer (Citec, CIT Technics BV). (Merlini L, Mazzone E S, Solari A, Morandi L. Muscle Nerve 2002; 26:64-70) Patients were tested independently four times by two raters, and the highest measure of the maximal voluntary isometric contraction was selected. Inter-rater coefficients (ICC) were determined as described by Shrout et al. (Shrout P E, Fleiss J L. Pscychol Bull 1979; 86:420-428)
# as §2
# [14] = according to recent publications
compound,measurement,setting,value
"O=C(O)CCCc1ccccc1 [PBA, 4-phenylbutyric acid]",SMN protein levels,[1],effective in enhancing SMN protein levels
same,expression of the SMN2 genes,[1],effective in increasing the expression of the SMN2 genes
same,number of SMN containing nuclear structures,[1],effective in enhancing
CC(C)(C)NCC(O)c1ccc(O)c(CO)c1 (stereo not shown) [albuterol],clinical outcome in SMA patients,[2],improvement in clinical symptoms
NCC1(CC(=O)O)CCCCC1 [gabapentin],clinical outcome in SMA patients,[2],did not show improvement of the symptoms
Nc1nc2ccc(OC(F)(F)F)cc2s1 [riluzole],clinical outcome in SMA patients,[2],no statistically significant improvement
CCCC(=O)[O-].[Na+] [sodium butyrate],expression of the SMN2 genes,[1],can increase SMN2 gene expression in vitro
"O=C([O-])CCCc1ccccc1.[Na+] [triButyrate®, Sodium 4-phenylbutyrate]",relative SMN-fl transcript levels during administration compared to baseline,"[3]; all patients, one or more blood samples",significant increase
same,"Percent SMN-fl transcripts variation versus T0, T1 mean(+-SD)","[3]; day 1 of 500 mg/kg/d oral, leukocytes, individual patients P1-P6 and parents M2, M3, F6, 500 mg/kg/day",+53 (0.1) % and −1 (0.0) % and +54 (0.2) % and +68 (0.0) % and +65 (0.1) % and +117 (1.0) % and +280 (0.7) % and +73 (0.0) % and +432 (0.2) %
same,"Percent SMN-fl transcripts variation versus T0, T2 mean(+-SD)","[3]; day 2 of 500 mg/kg/d oral, leukocytes, individual patients/parents, 500 mg/kg/day",+184 (0.6) % and +35 (0.3) % and +25 (0.1) % and +14 (0.0) % and −2 (0.0) % and +96 (0.1) % and +27 (0.0) % and +63 (0.1) %
same,"Percent SMN-fl transcripts variation versus T0, T3 mean(+-SD)","[3]; day 3 of 500 mg/kg/d oral, leukocytes, individual patients/parents, 500 mg/kg/day",+7 (0.2) % and +131 (0.5) % and +116 (0.0) % and −37 (0.0) % and +197 (0.7) % and −15 (0.1) % and +21 (0.1) % and +82 (0.2) %
same,"Percent SMN-fl transcripts variation versus T0, T4 mean(+-SD)","[3]; day 4 of 500 mg/kg/d oral, leukocytes, individual patients/parents, 500 mg/kg/day",+120 (0.4) % and −3 (0.0) % and +21 (0.0) % and +156 (0.2) % and +363 (0.6) % and +387 (0.9) % and −18 (0.2) % and +129 (0.3) % and +190 (0.5) %
same,"Percent SMN-fl transcripts variation versus T0, T7 mean(+-SD)","[3]; day 7 of 500 mg/kg/d oral, leukocytes, individual patients/parents, 500 mg/kg/day",+827 (1.9) % and +155 (0.1) % and −15 (0.4) % and +190 (0.2) % and +71 (0.3) % and +333 (0.5) % and +56 (0.2) %
same,increase in SMN-fl transcripts in at least one blood sample during treatment,[3]; in all patients,more than 100%
same,penetration into the cerebrospinal fluid (CSF),[4],penetrates into the cerebrospinal fluid
same,side-effect,[5],increased blood pressure
same,tolerability,"[6]; 500 mg/kg/d oral, intermittent, 9 weeks",generally well tolerated
same,stomach ache,"[6]; after the second dose, did not recur",Three very young children complained of stomach ache
same,children who found the taste of the drug very unpleasant,[6]; children who completed the trial,Eight of the 10
same,children who reported an unpleasant odour when sweating,[6]; of the eight who found the taste unpleasant,seven
same,adverse event leading to discontinuation,"[6]; one child, after the second week of treatment started",skin rash
same,motor function in the treated children,"[7]; 9 weeks, 7 days on and 7 days off",significant increase in motor function
same,children in the study group with an increase in functional scores,"[7]; 9 weeks, intermittent regimen",nine out of ten
same,"Hammersmith functional scale score, mean","[7]; T1, 3 weeks after treatment was started",14.8
same,"Hammersmith functional scale score, mean","[7]; T2, 9 weeks after treatment was started",17 and 16.6
same,children with an increase in functional scores of more than 2 points,"[7]; of the ten children, 9 weeks",6
same,adverse events,"[8]; P6 on day 2 at 18 g/d, resolved after reducing to 12 g/d",dizziness and tinnitus
same,tolerability,"[8]; all subjects, 500 mg/kg/d for 7 days",tolerated the drug well except for P6
same,Full blood counts and liver function tests,"[8]; all subjects, days 0 and 7",did not show significant changes
same,head and trunk control,"[8]; patient P1, severe type II phenotype",slight improvement in head and trunk control
same,hand tremor,"[8]; patient P5 (type III), day 3 of treatment, later complete absence lasting 4 days after end of trial",reduction of hand tremor
same,"myometry, patients with increase",[9]; 4 patients older than 5 years,clear increase in 3 of the 4
same,myometry,"[9]; T1, 3 weeks",0.18 and 0.41 and 0.09 and 0.38
same,myometry,"[9]; T2, 9 weeks",0.17 and 0.45 and 0.09 and 0.46
same,metabolised to butyrate,[10]; [14],~25%
same,metabolised to sodium phenylacetate,[10]; [14],approximately 75%
same,half-life,[10]; in vivo,48 to 60 min
same,"major joint's ranges (hips, knees, hamstrings, tendon Achilles and elbows)",[11],no difference
same,"Forced vital capacity, patients with increase",[12]; 4 patients older than 5 years,clear increase in 3 of the 4
same,FVC,"[12]; T1, 3 weeks",0.87 and 1.15 and 0.75 and 1.70
same,FVC,"[12]; T2, 9 weeks",1.18 and 1.23 and 1.22 and 1.74
same,expression of the SMN2 genes,[1],can increase SMN2 gene expression in vitro
same,Foot dorsiflexion,"[13]; T7 = day 7, P2, P3, P4 (type II), P6 (type III)",15 (0.6) Newtons and 9 (0.81) Newtons and 11 (0.81) Newtons and 11 (0.9) Newtons
same,Arm strength,"[13]; patients P3 and P4, less obvious than leg strength",increased
same,leg muscle strength on day 7 compared to baseline,"[13]; three type II patients (P2-4), statistically significant in P3 and P4",increase in leg muscle strength
same,muscle performance by myometry,"[13]; type III case (P6), reduced dosage",no changes in muscle performance
